Results published in patent US20230301300A1, “HERBICIDAL COMPOSITIONS” (SYNGENTA CROP PROTECTION AG, priority 2020, published 2023).

Experiments:
Assay type in all cases: in vivo
Setaria faberi (SETFA) [1] = assay: B2 Post-Emergence Efficacy - Test 2; settings: 15 days after application, 0=no damage, 100=total kill
Description: (§1) Seeds of a variety of test species (see Table B1) were sown in standard soil in pots. After cultivation for 12 days (post-emergence) under controlled conditions in a glasshouse (at 24/18° C. or 20/16° C., at day/night; 16 hours light; 65% humidity), the plants were sprayed with an aqueous spray solution derived from the formulation of the technical active ingredient dissolved in IF50 (see Table B2 for composition) and adjuvant (Genapol X080) was added to the spray solution at a rate of 0.2% v/v.
(§2) After application, the test plants were grown in a glasshouse under controlled conditions (as above) and watered twice daily. Herbicidal activity was evaluated 15 days after application on a 0-100 scale. The results, where 0=no damage to test plant and 100=total kill of test plant are shown below in Tables 8 to 11.

Bidens pilosa (BIDPI) = assay: B2 Post-Emergence Efficacy - Test 2; settings: 15 days after application, 0-100 scale
Description: as §1, §2

[2] = tested on: Triticum aestivum (TRZAW); assay: B2 Post-Emergence Efficacy - Test 2; settings: 15 days after application, 0-100 scale
Description: as §1, §2

[3] = tested on: Echinochloa crus galli (ECHCG); assay: B2 Post-Emergence Efficacy - Test 2; settings: 15 days after application, 0=no damage, 100=total kill
Description: as §1, §2

Orysa sativa (ORYSA) = assay: B2 Post-Emergence Efficacy - Test 2; settings: 15 days after application; for Herbicidal activity ORYSA: 0-100 scale; for Herbicidal activity on a 0-100 scale, ORYSA: 0=no damage, 100=total kill
Description: as §1, §2

Hordeum vulgare (HORVW) = assay: B2 Post-Emergence Efficacy - Test 2; settings: 15 days after application, 0-100 scale
Description: as §1, §2

[4] = tested on: Amaranthus retroflexus (AMARE); assay: B2 Post-Emergence Efficacy - Test 2; settings: 15 days after application, 0-100 scale
Description: as §1, §2

[5] = tested on: Brachiaria plantaginea (BRAPL); assay: B2 Post-Emergence Efficacy - Test 2; settings: 15 days after application, 0=no damage, 100=total kill
Description: as §1, §2

Kochia scoparia (KSHSC) = assay: B2 Post-Emergence Efficacy - Test 2; settings: 15 days after application, 0-100 scale
Description: as §1, §2

[6] = tested on: Chenopodium album (CHEAL); assay: B2 Post-Emergence Efficacy - Test 2; settings: 15 days after application, 0-100 scale
Description: as §1, §2

Veronica persica (VERPE) = assay: B2 Post-Emergence Efficacy - Test 2; settings: 15 days after application, 0-100 scale
Description: as §1, §2

Stellaria media (STEME) = assay: B2 Post-Emergence Efficacy - Test 2; settings: 15 days after application, 0-100 scale
Description: as §1, §2

[7] = tested on: Amaranthus retoflexus (AMARE); assay: B1 Post-Emergence Efficacy - Test 1; settings: 1000 g/ha, after 13 days, five point scale
Description: (§3) Seeds of a variety of test species are sown in standard soil in pots:— Solanum nigrum (SOLNI), Amaranthus retoflexus (AMARE), Setaria faberi (SETFA), Alopecurus myosuroides (ALOMY), Echinochloa crus-galli (ECHCG), Ipomoea hederacea (IPOHE), Lolium perenne (LOLPE). After 8 days cultivation (post-emergence) under controlled conditions in a glasshouse (at 24/16° C., day/night; 14 hours light; 65% humidity), the plants are sprayed with an aqueous spray solution derived from the formulation of the technical active ingredient in acetone/water (50:50) solution containing 0.5% Tween 20 (polyoxyethylene sorbitan monolaurate, CAS RN 9005-64-5). Compounds are applied at 1000 g/ha. The test plants are then grown in a glasshouse under controlled conditions in a glasshouse (at 24/16° C., day/night; 14 hours light; 65% humidity) and watered twice daily. After 13 days, the test is evaluated for the percentage damage caused to the plant. The biological activities are assessed on a five point scale (5=80-100%; 4=60-79%; 3=40-59%; 2=20-39%; 1=0-19%). A blank value in the table is indicative that the compound was not tested on that species.

Setaria faberi (SETFA) [8] = assay: B1 Post-Emergence Efficacy - Test 1; settings: 1000 g/ha, after 13 days, five point scale
Description: as §3

Solanum nigrum (SOLNI) = assay: B1 Post-Emergence Efficacy - Test 1; settings: 1000 g/ha, after 13 days, five point scale
Description: as §3

[9] = tested on: Ipomoea hederacea (IPOHE); assay: B1 Post-Emergence Efficacy - Test 1; settings: 1000 g/ha, after 13 days, five point scale
Description: as §3

[10] = tested on: Echinochloa crus-galli (ECHCG); assay: B1 Post-Emergence Efficacy - Test 1; settings: 1000 g/ha, after 13 days, five point scale
Description: as §3

Lolium perenne (LOLPE) = assay: B1 Post-Emergence Efficacy - Test 1; settings: 1000 g/ha, after 13 days, five point scale
Description: as §3

Cc1nn(C)c(=O)c(-c2c(F)ccc(Cl)c2CCc2ccccc2C(F)(F)F)c1O [Compound 1.066, 4-[3-chloro-6-fluoro-2-[2-[2-(trifluoromethyl)phenyl]ethyl]phenyl]-5-hydroxy-2,6-dimethyl-pyridazin-3-one]
Herbicidal activity on a 0-100 scale, SETFA (Setaria faberi (SETFA) [1]; 15 g/Ha): 0
Herbicidal activity on a 0-100 scale, SETFA (Setaria faberi (SETFA) [1]; 30 g/Ha): 70
Herbicidal activity on a 0-100 scale, SETFA (Setaria faberi (SETFA) [1]; 60 g/Ha): 70
Herbicidal activity on a 0-100 scale, SETFA (Setaria faberi (SETFA) [1]; 125 g/Ha): 80
Herbicidal activity on a 0-100 scale, SETFA (Setaria faberi (SETFA) [1]; 250 g/Ha): 90
Herbicidal activity on a 0-100 scale, SETFA (Setaria faberi (SETFA) [1]; 500 g/Ha): 90
Herbicidal activity BIDPI (Bidens pilosa (BIDPI); 15 g/Ha): 50
Herbicidal activity BIDPI (Bidens pilosa (BIDPI); 30 g/Ha): 60
Herbicidal activity BIDPI (Bidens pilosa (BIDPI); 60 g/Ha): 70
Herbicidal activity BIDPI (Bidens pilosa (BIDPI); 125 g/Ha): 80
Herbicidal activity BIDPI (Bidens pilosa (BIDPI); 250 g/Ha): 90
Herbicidal activity BIDPI (Bidens pilosa (BIDPI); 500 g/Ha): 90
Herbicidal activity TRZAW ([2]; 15 g/Ha): 0
Herbicidal activity TRZAW ([2]; 30 g/Ha): 10
Herbicidal activity TRZAW ([2]; 60 g/Ha): 40
Herbicidal activity TRZAW ([2]; 125 g/Ha): 60
Herbicidal activity TRZAW ([2]; 250 g/Ha): 70
Herbicidal activity TRZAW ([2]; 500 g/Ha): 80
Herbicidal activity on a 0-100 scale, ECHCG ([3]; 15 g/Ha): 20
Herbicidal activity on a 0-100 scale, ECHCG ([3]; 30 g/Ha): 80
Herbicidal activity on a 0-100 scale, ECHCG ([3]; 60 g/Ha): 90
Herbicidal activity on a 0-100 scale, ECHCG ([3]; 125 g/Ha): 90
Herbicidal activity on a 0-100 scale, ECHCG ([3]; 250 g/Ha): 90
Herbicidal activity on a 0-100 scale, ECHCG ([3]; 500 g/Ha): 90
Herbicidal activity ORYSA (Orysa sativa (ORYSA); 15 g/Ha): 0
Herbicidal activity on a 0-100 scale, ORYSA (Orysa sativa (ORYSA); 15 g/Ha): 0
Herbicidal activity ORYSA (Orysa sativa (ORYSA); 30 g/Ha): 0
Herbicidal activity on a 0-100 scale, ORYSA (Orysa sativa (ORYSA); 30 g/Ha): 0
Herbicidal activity ORYSA (Orysa sativa (ORYSA); 60 g/Ha): 0
Herbicidal activity on a 0-100 scale, ORYSA (Orysa sativa (ORYSA); 60 g/Ha): 0
Herbicidal activity ORYSA (Orysa sativa (ORYSA); 125 g/Ha): 10
Herbicidal activity on a 0-100 scale, ORYSA (Orysa sativa (ORYSA); 125 g/Ha): 10
Herbicidal activity ORYSA (Orysa sativa (ORYSA); 250 g/Ha): 20
Herbicidal activity on a 0-100 scale, ORYSA (Orysa sativa (ORYSA); 250 g/Ha): 20
Herbicidal activity ORYSA (Orysa sativa (ORYSA); 500 g/Ha): 40
Herbicidal activity on a 0-100 scale, ORYSA (Orysa sativa (ORYSA); 500 g/Ha): 40
Herbicidal activity HORVW (Hordeum vulgare (HORVW); 15 g/Ha): 0
Herbicidal activity HORVW (Hordeum vulgare (HORVW); 30 g/Ha): 10
Herbicidal activity HORVW (Hordeum vulgare (HORVW); 60 g/Ha): 20
Herbicidal activity HORVW (Hordeum vulgare (HORVW); 125 g/Ha): 70
Herbicidal activity HORVW (Hordeum vulgare (HORVW); 250 g/Ha): 80
Herbicidal activity HORVW (Hordeum vulgare (HORVW); 500 g/Ha): 90
Herbicidal activity AMARE ([4]; 15 g/Ha): 90
Herbicidal activity AMARE ([4]; 30 g/Ha): 90
Herbicidal activity AMARE ([4]; 60 g/Ha): 90
Herbicidal activity AMARE ([4]; 125 g/Ha): 100
Herbicidal activity AMARE ([4]; 250 g/Ha): 100
Herbicidal activity AMARE ([4]; 500 g/Ha): 100
Herbicidal activity on a 0-100 scale, BRAPL ([5]; 15 g/Ha): 0
Herbicidal activity on a 0-100 scale, BRAPL ([5]; 30 g/Ha): 60
Herbicidal activity on a 0-100 scale, BRAPL ([5]; 125 g/Ha): 80
Herbicidal activity on a 0-100 scale, BRAPL ([5]; 250 g/Ha): 70
Herbicidal activity on a 0-100 scale, BRAPL ([5]; 500 g/Ha): 100
Herbicidal activity KCHSC (Kochia scoparia (KSHSC); 15 g/Ha): 0
Herbicidal activity KCHSC (Kochia scoparia (KSHSC); 30 g/Ha): 0
Herbicidal activity KCHSC (Kochia scoparia (KSHSC); 60 g/Ha): 0
Herbicidal activity KCHSC (Kochia scoparia (KSHSC); 125 g/Ha): 10
Herbicidal activity KCHSC (Kochia scoparia (KSHSC); 250 g/Ha): 20
Herbicidal activity KCHSC (Kochia scoparia (KSHSC); 500 g/Ha): 20
Herbicidal activity CHEAL ([6]; 30 g/Ha): 90
Herbicidal activity CHEAL ([6]; 60 g/Ha): 90
Herbicidal activity CHEAL ([6]; 125 g/Ha): 90
Herbicidal activity CHEAL ([6]; 250 g/Ha): 100
Herbicidal activity CHEAL ([6]; 500 g/Ha): 100
Herbicidal activity VERPE (Veronica persica (VERPE); 15 g/Ha): 80
Herbicidal activity VERPE (Veronica persica (VERPE); 30 g/Ha): 90
Herbicidal activity VERPE (Veronica persica (VERPE); 60 g/Ha): 100
Herbicidal activity VERPE (Veronica persica (VERPE); 125 g/Ha): 100
Herbicidal activity VERPE (Veronica persica (VERPE); 250 g/Ha): 100
Herbicidal activity VERPE (Veronica persica (VERPE); 500 g/Ha): 100
Herbicidal activity STEME (Stellaria media (STEME); 15 g/Ha): 80
Herbicidal activity STEME (Stellaria media (STEME); 30 g/Ha): 60
Herbicidal activity STEME (Stellaria media (STEME); 60 g/Ha): 90
Herbicidal activity STEME (Stellaria media (STEME); 125 g/Ha): 90
Herbicidal activity STEME (Stellaria media (STEME); 250 g/Ha): 90
Herbicidal activity STEME (Stellaria media (STEME); 500 g/Ha): 100
percentage damage caused to the plant, AMARE [7]: 5 (5=80-100%)
percentage damage caused to the plant, SETFA (Setaria faberi (SETFA) [8]): 5 (5=80-100%)
percentage damage caused to the plant, SOLNI (Solanum nigrum (SOLNI)): 5 (5=80-100%)
percentage damage caused to the plant, IPOHE [9]: 5 (5=80-100%)
percentage damage caused to the plant, ECHCG [10]: 5 (5=80-100%)
percentage damage caused to the plant, LOLPE (Lolium perenne (LOLPE)): 4 (4=60-79%)
